# Source: patent EP1238058B1, “USE OF COLOSTRININ, C[…] AND ANALOGS THEREOF TO PROMOTE NEURAL CELL DIFFERENTIATION” (THE UNIVERSITY OF TEXAS SYSTEM, priority 1999, dated 2001)
# System: medullary pheochromocytoma (PC 12) cells
# Assay: PC12 cell differentiation (morphology) assay
# Assay type: cell-based
# Conditions: TPA 10 ng per ml, negative control
# Experimental: Cells: PC12 cell line derived from medullary pheochromocytoma cells were used to undertake studies described bellow. PC 12 cells were obtained from the American Type Culture Collection and maintained in RPMI-1640 supplemented with 10% fetal bovine serum (HYCLONE Inc), penicillin (100 U/ml) and streptomycin (100 µg/ml).
# Methods: To evaluate the effect of colostrum, colostrinin and its component peptides on cell differentiation 3 x 10^4 logarithmically replicating (70% confluence) PC 12 cells were seeded in 24 x well plates and cells were allowed to adhere and grow for 24 hours. Serum containing media were aspirated and replaced for serum-free RPMI containing appropriate amount of antibiotics. In four parallel, increasing concentrations (0.1, 1, 10 and 100 µg per ml) of colostrum, colostrinin and its component peptides were added directly into the media and incubated at 37°C. As a positive control, nerve growth factor (NGF) 7S (Gibco-BRL) was used at 100 ng per ml concentration (Chao et al., Cell, 68, 995-997 (1992); and Marshall et al., Cell, 80, 179-185 (1995)). Phorbol 12-myristate 13-acetate (TPA: 10 ng per ml) was used as a negative control. Eight hours later the media were changed and RPMI-1640 was added containing 1% or 10% fetal bovine serum. The cultures were microscopically investigated 2nd, 4th and 6th days after treatment. […]
substance,measurement,value
Phorbol 12-myristate 13-acetate [TPA],background level of differentiation,less than 0.01%
